The assay deals with T1, human recombinant 15-PGDH (Homo sapiens, UniProt P15428).
T1 sequence (P15428 1-266): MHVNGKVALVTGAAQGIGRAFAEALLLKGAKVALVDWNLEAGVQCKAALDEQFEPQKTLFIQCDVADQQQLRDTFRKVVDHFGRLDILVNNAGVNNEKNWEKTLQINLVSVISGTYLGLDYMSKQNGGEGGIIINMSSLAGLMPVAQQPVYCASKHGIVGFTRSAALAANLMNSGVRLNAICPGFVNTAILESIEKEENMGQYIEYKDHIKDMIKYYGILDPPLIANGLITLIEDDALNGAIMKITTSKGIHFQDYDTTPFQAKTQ
The assay is described as follows: Inhibition of recombinant 15-PGDH enzymatic activity (NADH quantification after addition of PGE2 and NAD+). Format: biochemical. Particulars: recombinant 15-PGDH; 15 min pre-incubation, 60-minute reaction, room temperature, pH 7.5; PGE2 and NAD+; read-out: PGDH-Lumi IC50. How it is done:
The compound dose-response of its inhibition of 15-PGDH activity was determined in human recombinant 15-PGDH enzymatical assays. These assays measured 15-PGDH enzymatic activity by quantifying the amount of NADH produced during a 60-minute reaction initiated by the addition of PGE2 and NAD+. Under the conditions of these experiments, the increase of NADH signal upon oxidation of PGE2 and reduction of NAD+ was linearly proportional to 15-PGDH enzymatic activity. The recombinant human, mouse, rat and dog 15-PGDH enzymatic assays were performed in a 25 μL volume of reaction buffer containing 50 mM Tris, pH 7.5, 0.01% Tween-20 and 100 μM DTT in a 384-well microtiter plate. In concentration-response experiments with tested compounds, 22 concentrations from 2-fold serial dilutions in DMSO were pre-incubated with 15-PGDH for 15 minutes at room temperature. Then, PGE2 and ß-NAD+ were added to initiate the 15-PGDH reaction. After 60 minutes at room temperature, the reaction was quenched and NADH signal was measured using a microtiter plate reader.
The following data (Table 11-1) provides the IC50 of each compound for inhibiting enzymatic activity of recombinant 15-PGDH in the assay described above.
Broadly, the IC50 is the concentration at which inhibition is half-maximal. On to `Cn1cc2cc(-c3nc(C4CC4)c4sc(C(=O)N5CCOCC5)cc4n3)cnc2n1` [Compound C49, (4-cyclopropyl-2-(2-methyl-2H-pyrazolo[3,4-b]pyridin-5-yl)thieno[3,2-d]pyrimidin-6-yl)(4-morpholinyl)methanone], for which the IC50 stood at 1.67 nM. Regarding `Cn1cc(-c2ccc3cc(C(=O)N4CCOCC4)sc3n2)ccc1=O` [Compound B35, 1-methyl-5-(2-(4-morpholinylcarbonyl)thieno[2,3-b]pyridin-6-yl)-2(1H)-pyridinone], the IC50 came to 576 nM.

For the molecule `C[C@H]1COCCN1C(=O)c1sc2nc(-c3cnc4nn(C)cc4c3)cc(C3CCC3)c2c1N` [Compound B6S, (3-amino-4-cyclobutyl-6-(2-methyl-2H-pyrazolo[3,4-b]pyridin-5-yl)thieno[2,3-b]pyridin-2-yl)((3S)-3-methyl-4-morpholinyl)methanone], the IC50 turned out to be 0.554 nM. Under `O=C(c1cc2ccc(-c3ccc4ncccc4c3)nc2s1)N1CCOCC1` [Compound B49, 4-morpholinyl(6-(6-quinolinyl)thieno[2,3-b]pyridin-2-yl)methanone] stands 77.8 nM.

Turning to `Cn1cnc2ncc(-c3ccc4cc(C(=O)N5CCOCC5)sc4n3)cc21` [Compound B50, (6-(1-methyl-1H-imidazo[4,5-b]pyridin-6-yl)thieno[2,3-b]pyridin-2-yl)(4-morpholinyl)methanone], the IC50 is 2.64 nM. The figure for `O=C(c1cc2ccc(-c3nccs3)nc2s1)N1CCOCC1` [Compound B38, 4-morpholinyl(6-(1,3-thiazol-2-yl)thieno[2,3-b]pyridin-2-yl)methanone] is 1330 nM. With `Cn1cc2cc(-c3ccc4cc(C(=O)N5CCOCC56COC6)sc4n3)cnc2n1` [Compound B51, 2,8-dioxa-5-azaspiro[3.5]nonan-5-yl(6-(2-methyl-2H-pyrazolo[3,4-b]pyridin-5-yl)thieno[2,3-b]pyridin-2-yl)methanone], the IC50 amounted to 340 nM. Consider `Cn1ccc2cc(-c3cnc4sc(C(=O)N5CCCCC5)cc4c3)ccc2c1=O` [Compound B28, 2-methyl-6-(2-(1-piperidinylcarbonyl)thieno[2,3-b]pyridin-5-yl)-1(2H)-isoquinolinone], for which the IC50 was determined as 11.9 nM. With `Cn1cc2cc(-c3ccc4sc(C(=O)N5CCC(F)(F)CC5)cc4n3)cnc2n1` [Compound C41, (4,4-difluoro-1-piperidinyl)(5-(2-methyl-2H-pyrazolo[3,4-b]pyridin-5-yl)thieno[3,2-b]pyridin-2-yl)methanone], the IC50 worked out at 0.429 nM. As to `Cn1cc2cc(-c3ccc4cc(C(=O)N5CCOCC5(C)C)sc4n3)cnc2n1` [Compound B29, (3,3-dimethyl-4-morpholinyl)(6-(2-methyl-2H-pyrazolo[3,4-b]pyridin-5-yl)thieno[2,3-b]pyridin-2-yl)methanone], the IC50 worked out at 83.6 nM.

Regarding `Cc1c(C(=O)N2CCOCC2)sc2cc(-c3cnc(NCCO)nc3)ccc12` [Compound A10], the IC50 came to 1610 nM.

For `Cn1cc2cc(-c3ccc4sc(C(=O)N5CCC(F)(F)CC5)c(N)c4n3)cnc2n1` [Compound C48, (3-amino-5-(2-methyl-2H-pyrazolo[3,4-b]pyridin-5-yl)thieno[3,2-b]pyridin-2-yl)(4,4-difluoro-1-piperidinyl)methanone], the IC50 was 3.53 nM. The figure for `Cn1cc2cc(-c3ccc4cc(C(=O)N5CCC(F)(F)CC5)sc4n3)cnc2n1` [Compound B25, (4,4-difluoro-1-piperidinyl)(6-(2-methyl-2H-pyrazolo[3,4-b]pyridin-5-yl)thieno[2,3-b]pyridin-2-yl)methanone] is 0.352 nM; for `CC(C)(C)OC(=O)N1CCN(c2ncc(-c3cc(C4CC4)c4cc(C(=O)N5CCCCC5)sc4n3)cn2)CC1` [Compound B18, 2-methyl-2-propanyl 4-(5-(4-cyclopropyl-2-(1-piperidinylcarbonyl)thieno[2,3-b]pyridin-6-yl)-2-pyrimidinyl)-1-piperazinecarboxylate] it is 1.58 nM. Take `Cn1cc2cc(-c3cc(C4CCC4)c4c(N)c(C(=O)N5CCCCC5)sc4n3)cnc2n1` [Compound B5, (3-amino-4-cyclobutyl-6-(2-methyl-2H-pyrazolo[3,4-b]pyridin-5-yl)thieno[2,3-b]pyridin-2-yl)(1-piperidinyl)methanone]: the IC50 was found to be 0.255 nM. The figure for `C[C@H]1COCCN1C(=O)c1nc2ccc(-c3cnc4nn(C)cc4c3)nc2s1` [Compound C52S, ((3S)-3-methyl-4-morpholinyl)(5-(2-methyl-2H-pyrazolo[3,4-b]pyridin-5-yl)[1,3]thiazolo[5,4-b]pyridin-2-yl)methanone] is 25.7 nM. For `Cn1nnc2cc(-c3ccc4cc(C(=O)N5CCOCC5)sc4n3)cnc21` [Compound B54, (6-(3-methyl-3H-[1,2,3]triazolo[4,5-b]pyridin-6-yl)thieno[2,3-b]pyridin-2-yl)(4-morpholinyl)methanone], the IC50 was 16.1 nM. `COCCN(C)C(=O)c1sc2cc(-c3cnc4nn(C)cc4c3)ccc2c1C` [Compound A5, N-(2-methoxyethyl)-N,3-dimethyl-6-(2-methyl-2H-pyrazolo[3,4-b]pyridin-5-yl)-1-benzothiophene-2-carboxamide]: the IC50 was 87.8 nM. Regarding `C[C@H]1COCCN1C(=O)c1cc2ccc(-c3ccc4ncccc4c3)nc2s1` [Compound B55S, ((3S)-3-methyl-4-morpholinyl)(6-(6-quinolinyl)thieno[2,3-b]pyridin-2-yl)methanone], the IC50 came to 144 nM. For `C[C@@H]1COCCN1C(=O)c1cc2ccc(-c3ccc4ncccc4c3)nc2s1` [Compound B61R, ((3R)-3-methyl-4-morpholinyl)(6-(6-quinolinyl)thieno[2,3-b]pyridin-2-yl)methanone], the IC50 came out at 189 nM. As for `Cc1c(C(=O)N2CCOC(C)(C)C2)sc2cc(-c3cnc4nn(C)cc4c3)ccc12` [Compound A6, (2,2-dimethyl-4-morpholinyl)(3-methyl-6-(2-methyl-2H-pyrazolo[3,4-b]pyridin-5-yl)-1-benzothiophen-2-yl)methanone], the IC50 came to 185 nM. Take `COCCN(C)C(=O)c1cc2c(C3CC3)cc(-c3cnc4nn(C)cc4c3)nc2s1` [Compound B12, 4-cyclopropyl-N-(2-methoxyethyl)-N-methyl-6-(2-methyl-2H-pyrazolo[3,4-b]pyridin-5-yl)thieno[2,3-b]pyridine-2-carboxamide]: the IC50 is 0.704 nM. For the molecule `Cn1cc2cc(-c3cc(C4CC4)c4cc(C(=O)N5CCCOCC5)sc4n3)cnc2n1` [Compound B24, (4-cyclopropyl-6-(2-methyl-2H-pyrazolo[3,4-b]pyridin-5-yl)thieno[2,3-b]pyridin-2-yl)(1,4-oxazepan-4-yl)methanone], the IC50 amounted to 0.428 nM. Turning to `Cn1cc2cc(-c3cc(-c4ccnn4C)c4cc(C(=O)N5CCOCC5)sc4n3)cnc2n1` [Compound B13, (6-(2-methyl-2H-pyrazolo[3,4-b]pyridin-5-yl)-4-(1-methyl-1H-pyrazol-5-yl)thieno[2,3-b]pyridin-2-yl)(4-morpholinyl)methanone], the IC50 was determined as 1.26 nM. On to `Cn1cc2cc(-c3cnc4sc(C(=O)N5CCC(F)(F)CC5)cc4n3)cnc2n1` [Compound C40, (4,4-difluoro-1-piperidinyl)(2-(2-methyl-2H-pyrazolo[3,4-b]pyridin-5-yl)thieno[2,3-b]pyrazin-6-yl)methanone], for which the IC50 stood at 0.726 nM.

Take `Cn1cc2cc(-c3cc(C4CC4)c4cc(C(=O)N5CCCC(F)(F)C5)sc4n3)cnc2n1` [Compound B11, (4-cyclopropyl-6-(2-methyl-2H-pyrazolo[3,4-b]pyridin-5-yl)thieno[2,3-b]pyridin-2-yl)(3,3-difluoro-1-piperidinyl)methanone]: the IC50 turned out to be 0.317 nM. The figure for `Cn1cc2cc(-c3cnc4cc(C(=O)N5CCC(F)(F)CC5)sc4n3)cnc2n1` [Compound C39] is 1.38 nM; for `Cn1cc2cc(-c3ccc4cc(C(=O)N5CCOC6(CC6)C5)sc4n3)cnc2n1` [Compound B47, (6-(2-methyl-2H-pyrazolo[3,4-b]pyridin-5-yl)thieno[2,3-b]pyridin-2-yl)(4-oxa-7-azaspiro[2.5]octan-7-yl)methanone] it is 0.712 nM.

As for `C[C@@H]1COCCN1C(=O)c1cc2ccc(-c3cnc4c(=O)n(C)ccc4c3)nc2s1` [Compound B62R, 7-methyl-3-(2-(((3R)-3-methyl-4-morpholinyl)carbonyl)thieno[2,3-b]pyridin-6-yl)-1,7-naphthyridin-8(7H)-one], the IC50 is 4260 nM. `C[C@H]1COCCN1C(=O)c1cc2ccc(-c3cnc4nccnc4c3)nc2s1` [Compound B57S, ((3S)-3-methyl-4-morpholinyl)(6-(pyrido[2,3-b]pyrazin-7-yl)thieno[2,3-b]pyridin-2-yl)methanone]: the IC50 turned out to be 10.3 nM. In the case of `CO[C@@H]1CCN(C(=O)c2sc3cc(-c4cnc5nn(C)cc5c4)ccc3c2C)C1` [Compound A4R, ((3R)-3-methoxy-1-pyrrolidinyl)(3-methyl-6-(2-methyl-2H-pyrazolo[3,4-b]pyridin-5-yl)-1-benzothiophen-2-yl)methanone], the IC50 came to 225 nM.

The record behind these values is US20260315492A1, “5,6-FUSED BICYCLIC AMIDES AND COMPOSITIONS FOR USE AS 15-PROSTAGLANDIN DEHYDROGENASE MODULATORS” (AMGEN INC., priority 2023, published 2026).
